Key:
SARS-CoV-2 [1] = experiment: microbe, parasite or virus in culture; details: Severe acute respiratory syndrome coronavirus 2, 2019-nCoV, Vero C1008
SARS-CoV-2 [2] = experiment: microbe, parasite or virus in culture; details: Severe acute respiratory syndrome coronavirus 2, Omicron BA.1, Vero C1008

SMILES | EC50 (SARS-CoV-2 [1]) | EC50 (SARS-CoV-2 [2])
CC(c1nc(-c2ccc(-c3ccc(C(=O)O)s3)cc2)no1)c1cccc2ccccc12 (centres undefined) | 5.4 µM | 25.2 µM
Cc1ccc(-c2noc(C(C)c3ccc(-c4ccccc4)c(F)c3)n2)cc1NCc1ccc(C(=O)O)s1 (racemic) | 4.3 µM | 79.8 µM

— ChEMBL document CHEMBL5500399, “Design, Synthesis, and Biological Evaluation of 1,2,4-Oxadiazole Derivatives Containing an Aryl Carboxylic Acid Moiety as Potent Sarbecovirus Papain-like Protease Inhibitors” (J Med Chem, 2024)
